Test results from patent US20240239790A1, “7-Morpholino-1,6-Naphthyridin-5-yl Derivatives and Pharmaceutical Compositions Thereof Useful as DNA-PK Inhibitor” (adMare Therapeutics Society, priority 2021, published 2024).
pEC50, pIC50: −log10 of the molar value. Where two headings read alike, the source gives them in different places.

Assays:
[1] = target: T1, DNA-PK phosphorylation at Serine 2056 (Homo sapiens, UniProt P78527); test: Cellular Assay for Inhibition of DNA-PK Phosphorylation at Serine 2056 in FaDu cells (sandwich ELISA, neocarzinostatin); assay type: cell-based; settings: pSer2056 DNA-PK, Table 3
T1 construct: FaDu cells were purchased from ATCC; host or cells: FaDu
Summary of the method: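 FaDu cells pre-treated with compound (0.3% DMSO) for 1 h, then neocarzinostatin 1 μg/mL final added for 2 h to induce DSBs. Protein-normalised lysates read by sandwich ELISA for total and pSer2056 DNA-PK; % inhibition normalised between DMSO and NCS controls, IC50 from variable-slope log(inhibitor) fit.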

[2] = system: pH2AX induction in HCT116 ATM-/- multicellular tumour spheroids; test: Prodrug Radiation Sensitization in Multicellular Tumour Spheroids, inhibition of pH2AX induction following radiation; assay type: cell-based; settings: Homo sapiens, HCT-116, 20 Gy
Summary of the method: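 HCT116 and FaDu spheroids (~0.5 mm diameter), ATM-deficient lines included, in MEM/10% FBS/10 mM glucose at 37 °C under 20% vs 5% oxygen with stirring. Prodrugs 10 μM down to 3.5 nM, 20 Gy irradiation. pDNA-PK (ser 2056) or pH2AX (ser 139) scored in formalin-fixed cryosections 1 or 2 h post-radiation.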

FaDu cell line = test: Prodrug Activation in Hypoxic Stirred Tumour Cell Suspensions; settings: 10 μM, 4 hours
[3] = 5% O2, inner layers, read-out: Prodrug 5% O2 Inner layers EC50
[4] = 5% O2, outer layers, read-out: Prodrug 5% O2 Outer layers EC50
[5] = 20% O2, outer layers, read-out: Prodrug 20% O2 Outer layers EC50

| Structure (SMILES) | pIC50 [1] | Fraction of prodrug converted to active form, Hypoxic 0.2% O2 (FaDu cell line) | Fraction of prodrug converted to active form, Oxic 5% O2 (FaDu cell line) | pEC50 [2, 3] | pEC50 [2, 4] | pEC50 [2, 5] |
| --- | --- | --- | --- | --- | --- | --- |
| CN1CCN(c2cnc(N[C@H]3CC[C@@H](Oc4nc(N5CCOCC5)cc5ncc(N(Cc6cnn(C)c6[N+](=O)[O-])S(C)(=O)=O)cc45)CC3)nc2)CC1 [LFA2072, N-[(1-methyl-5-nitro-pyrazol-4-yl)methyl]-N-[5-[4-[[5-(4-methylpiperazin-1-yl)pyrimidin-2-yl]amino]cyclohexoxy]-7-morpholino-1,6-naphthyridin-3-yl]methanesulfonamide] | 5.00 to 6.00 | B (B is 0.05 to 0.15) | B (B is 0.05 to 0.15) | 6.30 to 8.00 | 6.30 to 8.00 | 5.00 to 6.00 |
| CC(NS(=O)(=O)c1cnc2cc(N3CCOCC3)nc(O[C@H]3CC[C@@H](Nc4ncc(OCCN5CCN(C)CC5)cn4)CC3)c2c1)c1cnc([N+](=O)[O-])n1C (stereo partly drawn) [LFA2090, N-[1-(3-methyl-2-nitro-imidazol-4-yl)ethyl]-5-[4-[[5-[2-(4-methylpiperazin-1-yl)ethoxy]pyrimidin-2-yl]amino]cyclohexoxy]-7-morpholino-1,6-naphthyridine-3-sulfonamide] | 4.52 to 5.00 | D (D is 0 to 0.02) | D (D is 0 to 0.02) | 4.00 to 5.00 | 4.00 to 5.00 | 4.00 to 5.00 |
| Cn1c(COc2cnc3cc(N4CCOCC4)nc(O[C@H]4CC[C@@H](N(C)c5ncccn5)CC4)c3c2)cnc1[N+](=O)[O-] [LFA2071, N-methyl-N-[4-[[3-[(3-methyl-2-nitro-imidazol-4-yl)methoxy]-7-morpholino-1,6-naphthyridin-5-yl]oxy]cyclohexyl]pyrimidin-2-amine] | 4.52 to 5.00 | A (A is 0.15 to 1) | B (B is 0.05 to 0.15) | 6.30 to 8.00 | 5.00 to 6.00 | 5.00 to 6.00 |
| Cn1c(CN(c2cnc3cc(N4CCOCC4)nc(O[C@H]4CC[C@@H](Nc5nccnc5C#N)CC4)c3c2)S(C)(=O)=O)cnc1[N+](=O)[O-] [LFA2102, N-[5-[4-[(3-cyanopyrazin-2-yl)amino]cyclohexoxy]-7-morpholino-1,6-naphthyridin-3-yl]-N-[(3-methyl-2-nitro-imidazol-4-yl)methyl]methanesulfonamide] | 4.52 to 5.00 | C (C is 0.02 to 0.05) | D (D is 0 to 0.02) | 6.30 to 8.00 | 5.00 to 6.00 | 5.00 to 6.00 |
| Cn1c(CN(c2cnc3cc(N4CCOCC4)nc(OC4CCC(Nc5ncc(N6CCN(CCF)CC6)cn5)CC4)c3c2)S(C)(=O)=O)cnc1[N+](=O)[O-] (stereo not drawn) [LFA2044, N-[5-[4-[[5-[4-(2-fluoroethyl)piperazin-1-yl]pyrimidin-2-yl]amino]cyclohexoxy]-7-morpholino-1,6-naphthyridin-3-yl]-N-[(3-methyl-2-nitro-imidazol-4-yl)methyl]methanesulfonamide] | 5.00 to 6.00 | C (C is 0.02 to 0.05) | D (D is 0 to 0.02) | 6.30 to 8.00 | 5.00 to 6.00 | 5.00 to 6.00 |
| CC(Oc1cnc2cc(N3CCOCC3)nc(O[C@H]3CC[C@@H](N(C)c4ncccn4)CC3)c2c1)c1cnc([N+](=O)[O-])n1C (stereo partly drawn) [LFA2063, N-methyl-N-[4-[[3-[1-(3-methyl-2-nitro-imidazol-4-yl)ethoxy]-7-morpholino-1,6-naphthyridin-5-yl]oxy]cyclohexyl]pyrimidin-2-amine] | 4.52 to 5.00 | A (A is 0.15 to 1) | B (B is 0.05 to 0.15) | 6.30 to 8.00 | 5.00 to 6.00 | 5.00 to 6.00 |
| CC(Oc1cnc2cc(N3CCOCC3)nc(OC3CCC(Nc4ncc(OCCN5CCN(C)CC5)cn4)CC3)c2c1)c1cnn(C)c1[N+](=O)[O-] (stereo not drawn) [LFA2089, N-[4-[[3-[1-(1-methyl-5-nitro-pyrazol-4-yl)ethoxy]-7-morpholino-1,6-naphthyridin-5-yl]oxy]cyclohexyl]-5-[2-(4-methylpiperazin-1-yl)ethoxy]pyrimidin-2-amine] | 5.00 to 6.00 | B (B is 0.05 to 0.15) | D (D is 0 to 0.02) | 5.00 to 6.00 | 5.00 to 6.00 | 5.00 to 6.00 |
| Cn1ncc(CN(c2cnc3cc(N4CCOCC4)nc(O[C@H]4CC[C@@H](Nc5ncccn5)CC4)c3c2)S(C)(=O)=O)c1[N+](=O)[O-] [LFA2057, N-[(1-methyl-5-nitro-pyrazol-4-yl)methyl]-N-[7-morpholino-5-[4-(pyrimidin-2-ylamino)cyclohexoxy]-1,6-naphthyridin-3-yl]methanesulfonamide] | 5.00 to 6.00 | A (A is 0.15 to 1) | B (B is 0.05 to 0.15) | 6.30 to 8.00 | 6.30 to 8.00 | 5.00 to 6.00 |
| CC(c1cnn(C)c1[N+](=O)[O-])N(c1cnc2cc(N3CCOCC3)nc(O[C@H]3CC[C@@H](Nc4ncccn4)CC3)c2c1)S(C)(=O)=O (stereo partly drawn) [LFA2056, N-[1-(1-methyl-5-nitro-pyrazol-4-yl)ethyl]-N-[7-morpholino-5-[4-(pyrimidin-2-ylamino)cyclohexoxy]-1,6-naphthyridin-3-yl]methanesulfonamide] | 5.00 to 6.00 | C (C is 0.02 to 0.05) | C (C is 0.02 to 0.05) | 6.30 to 8.00 | 6.30 to 8.00 | 5.00 to 6.00 |

Continued, in another order:

| pIC50 [1] | Fraction of prodrug converted to active form, Hypoxic 0.2% O2 (FaDu cell line) | Fraction of prodrug converted to active form, Oxic 5% O2 (FaDu cell line) | Structure (SMILES) | pEC50 [2, 3] | pEC50 [2, 4] | pEC50 [2, 5] |
| --- | --- | --- | --- | --- | --- | --- |
| 4.52 to 5.00 | D (D is 0 to 0.02) | D (D is 0 to 0.02) | Cn1c(CN(c2cnc3cc(N4CCOCC4)nc(OC4CCC(Nc5ncc(N6CCN(CC(F)(F)F)CC6)cn5)CC4)c3c2)S(C)(=O)=O)cnc1[N+](=O)[O-] (stereo not drawn) [LFA2045, N-[(3-methyl-2-nitro-imidazol-4-yl)methyl]-N-[7-morpholino-5-[4-[[5-[4-(2,2,2-trifluoroethyl)piperazin-1-yl]pyrimidin-2-yl]amino]cyclohexoxy]-1,6-naphthyridin-3-yl]methanesulfonamide] | 5.00 to 6.00 | 5.00 to 6.00 | 5.00 to 6.00 |
| 4.52 to 5.00 | A (A is 0.15 to 1) | B (B is 0.05 to 0.15) | CC(Oc1cnc2cc(N3CCOCC3)nc(O[C@H]3CC[C@@H](Nc4ncc(N5CCN(C)CC5)cn4)CC3)c2c1)c1cnc([N+](=O)[O-])n1C (stereo partly drawn) [LFA2066, N-[4-[[3-[1-(3-methyl-2-nitro-imidazol-4-yl)ethoxy]-7-morpholino-1,6-naphthyridin-5-yl]oxy]cyclohexyl]-5-(4-methylpiperazin-1-yl)pyrimidin-2-amine] | 6.30 to 8.00 | 5.00 to 6.00 | 5.00 to 6.00 |
| 6.00 to 7.00 | B (B is 0.05 to 0.15) | C (C is 0.02 to 0.05) | Cn1c(CN(c2cnc3cc(N4CCOCC4)nc(O[C@H]4CC[C@@H](Nc5ccc(F)cn5)CC4)c3c2)S(C)(=O)=O)cnc1[N+](=O)[O-] [LFA2010, N-[5-[4-[(5-fluoro-2-pyridyl)amino]cyclohexoxy]-7-morpholino-1,6-naphthyridin-3-yl]-N-[(3-methyl-2-nitro-imidazol-4-yl)methyl]methanesulfonamide] | 6.30 to 8.00 | 6.00 to 6.30 | 5.00 to 6.00 |
| 5.00 to 6.00 | B (B is 0.05 to 0.15) | C (C is 0.02 to 0.05) | CS(=O)(=O)N(Cc1cnc([N+](=O)[O-])n1C1CC1)c1cnc2cc(N3CCOCC3)nc(O[C@H]3CC[C@@H](Nc4ncccn4)CC3)c2c1 [LFA2058, N-[(3-cyclopropyl-2-nitro-imidazol-4-yl)methyl]-N-[7-morpholino-5-[4-(pyrimidin-2-ylamino)cyclohexoxy]-1,6-naphthyridin-3-yl]methanesulfonamide] | 6.30 to 8.00 | 6.30 to 8.00 | 5.00 to 6.00 |
| 5.00 to 6.00 | B (B is 0.05 to 0.15) | D (D is 0 to 0.02) | CC(c1cnc([N+](=O)[O-])n1C)N(c1cnc2cc(N3CCOCC3)nc(O[C@H]3CC[C@@H](Nc4ncc(OC5CCN(C)C5)cn4)CC3)c2c1)S(C)(=O)=O (stereo partly drawn) [LFA2068, N-[1-(3-methyl-2-nitro-imidazol-4-yl)ethyl]-N-[5-[4-[[5-(1-methylpyrrolidin-3-yl)oxypyrimidin-2-yl]amino]cyclohexoxy]-7-morpholino-1,6-naphthyridin-3-yl]methanesulfonamide] | 6.00 to 6.30 | 5.00 to 6.00 | 4.00 to 5.00 |
